IC50 data for 37 compounds are collected here from patent publication US20240417407A1, “FUROINDAZOLE DERIVATIVES AS GPR84 ANTAGONISTS” (Bayer Aktiengesellschaft, priority 2021, published 2024).

The target of the experiment is T1, human GPR84 receptor (Homo sapiens, UniProt Q9NQS5).
T1 construct: frozen aliquots prepared by acCELLerate; host or cells: CHO-K1
Briefly: cAMP HTRF assay for identification of cellular GPR84 antagonists. It counts as cell-based. Conditions: CHO-K1 cells stably expressing human GPR84; Forskolin plus agonist 6-OAU; cAMP HTRF readout; average or median values. From the text: cAMP HTRF® Assay for Identification of Cellular GPR84 Antagonists
By using a Homogenous Time-Resolved Fluorescence (HTRF®) based assay (#62AM5PEJ, Cisbio, Condolet, France) the inhibition of the Gi-coupled GPR84 receptor can be detected. CHO-K1 cells stably expressing human GPR84 receptor (purchased from DiscoveRx, now Eurofins) were used and treated with Forskolin (F6886, Sigma, Germany) to stimulate membrane adenylyl cyclases and thereby unspecific cAMP formation. Activation of the Gi-coupled GPR84 by a natural or small molecule agonist (e.g. 6-n-octyl aminouracile, inhouse) results in inhibition of cellular cAMP formation which can be released again by antagonists to this receptor. Detection and quantification of cellular cAMP levels in this HTRF assay is achieved by interaction between a fluorescent cAMP tracer (cAMP-d2) and an Eu-cryptate labelled anti-cAMP antibody. Following excitation at 337 nm this pairing allows for the generation of a fluorescence resonance energy transfer (FRET) between the partners and results in FRET induced emissions at 665 nm and 620 nm, the latter representing background signal by Eu-cryptate labelled anti-cAMP antibody. Maximal signal is obtained in the absence of any cellular cAMP (no competition for the binding of the tracer to the antibody). Given the combination of the Gi coupling properties of GPR84 and the competitive nature of the detection system agonist treatment should result in an increase in the HTRF signal due to lowered cAMP levels. Any signal decrease in the presence of Forskolin, agonist and compound is indicative of antagonist mediated abrogation of GPR84 signalling.
For the assay, frozen aliquots of CHO-K1 cells expressing hGPR84 (prepared by acCELLerate, Hamburg, Germany) were thawed and a cell suspension (1.67E+06 cells/mL) in assay media (Ham's F12 Nutrient Mix, Thermo Fisher Scientific, Waltham, USA; 5% fetal calf serum, Biomol, Hamburg, Germany) containing cAMP-d2 (dilution 1:20, supplied with the kit #62AM5PEJ, Cisbio, Condolet, France) was prepared. After recovery of cells for 20 minutes at 37° C., 3 μL/well cell suspension including cAMP-d2 were added to a pre-dispensed assay plate (Greiner Bio-One, Kremsmuenster, Austria) containing 50 nl/well test compound in 100% DMSO or 100% DMSO as control. This was followed by a 30 minutes incubation step at room temperature. […] The reaction was stopped by addition of 3 μL/well lysis buffer containing cAMP Eu-Cryptate antibody (dilution 1:20) (both supplied with the kit #62AM5PEJ, Cisbio, Condolet, France). To enable complete lysis, plates were incubated for 60 minutes at room temperature before measurement in an HTRF reader, e.g. a PHERAstar (BMG Labtech, Ortenberg, Germany).
From the fluorescence emissions at 665 nm (FRET) and at 620 nm (background signal of Eu-cryptate) the ratio (emission at 665 nm divided by emission at 620 nm×10000) was calculated and the data were normalized (reaction without test compound, only 100% DMSO=0% inhibition; all other assay components except agonist=100% inhibition). For dose response testing on the same microtiter plate, compounds were tested at 11 different concentrations in the range of 20 μM to 0.07 nM (20 μM, 5.7 μM, 1.6 μM, 0.47 μM, 0.13 μM, 38 nM, 11 nM, 3.1 nM, 0.89 nM, 0.25 and 0.07 nM; dilution series prepared before the assay at the level of the 100-fold conc. stock solutions by serial 1:3.5 dilutions in 100% DMSO) in duplicate values for each concentration. IC50 values were calculated by 4-parameter fitting using a commercial software package (Genedata Screener, Basel, Switzerland).
Examples were tested in selected biological assays one or more times. […]

T1 sequence (Q9NQS5 whole entry): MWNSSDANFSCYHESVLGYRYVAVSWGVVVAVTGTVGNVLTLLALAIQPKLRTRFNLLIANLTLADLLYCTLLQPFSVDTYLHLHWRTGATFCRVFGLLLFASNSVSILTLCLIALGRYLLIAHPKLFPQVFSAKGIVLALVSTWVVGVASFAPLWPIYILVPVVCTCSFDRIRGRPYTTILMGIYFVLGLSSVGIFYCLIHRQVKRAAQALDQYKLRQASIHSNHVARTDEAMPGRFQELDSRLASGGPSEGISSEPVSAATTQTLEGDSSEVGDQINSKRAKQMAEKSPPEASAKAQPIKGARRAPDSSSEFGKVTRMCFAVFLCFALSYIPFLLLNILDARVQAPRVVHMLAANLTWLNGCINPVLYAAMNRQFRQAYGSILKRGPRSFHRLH

One may read the IC50 as the midpoint of a concentration-inhibition curve. Consider `CC1CCC(CNC(=O)c2oc3ccc4cn(C[C@H]5COCCO5)nc4c3c2C(F)(F)F)O1` (mixture of isomers) [Example 7, 2-{[(2S)-1,4-dioxan-2-yl]methyl}-N-{[(2RS,5RS)-5-methyltetrahydrofuran-2-yl]methyl}-8-(trifluoromethyl)-2H-furo[2,3-g]indazole-7-carboxamide], for which the IC50 turned out to be 0.013 µM.

`CC1(C)COC(CNC(=O)c2oc3ccc4cn(C[C@H]5COCCO5)nc4c3c2C(F)(F)F)C1` (mixture of isomers) [Example 5]: the 50% inhibitory concentration (IC50) turned out to be 0.009 µM. With `O=C(NCC1CC(F)(F)CO1)c1oc2ccc3cn(C[C@H]4COCCO4)nc3c2c1C(F)(F)F` (mixture of isomers) [Example 6] the figure was 0.011 µM; with `O=C(NC[C@@H]1COCCO1)c1oc2ccc3cn(C[C@H]4COCCO4)nc3c2c1C(F)(F)F` [Example 1, N-{[(2R)-1,4-dioxan-2-yl]methyl}-2-{[(2S)-1,4-dioxan-2-yl]methyl}-8-(trifluoromethyl)-2H-furo[2,3-g]indazole-7-carboxamide], 0.016 µM; with `O=C(NC[C@@H]1CCCO1)c1oc2ccc3cn(C[C@H]4COCCO4)nc3c2c1C(F)(F)F` [Example 2], 0.007 µM. On to `Cc1ccc(Cn2cc3ccc4oc(C(=O)NC[C@@H]5COCCO5)c(C(F)(F)F)c4c3n2)cn1` [Example 3, N-{[(2R)-1,4-dioxan-2-yl]methyl}-2-[(6-methylpyridin-3-yl)methyl]-8-(trifluoromethyl)-2H-furo[2,3-g]indazole-7-carboxamide], for which the IC50 came out at 0.007 µM.

In the case of `Cc1ccc(Cn2cc3ccc4oc(C(=O)NC[C@@H]5CCCO5)c(C(F)(F)F)c4c3n2)cn1` [Example 4], the half-inhibitory concentration (IC50) was 0.009 µM. The figure for `O=C(NCCC1CC1)c1oc2ccc3cn(C[C@H]4COCCO4)nc3c2c1C(F)(F)F` [Example 8] is 1.04 µM. Turning to `CS(=O)(=O)CCNC(=O)c1oc2ccc3cn(C[C@H]4COCCO4)nc3c2c1C(F)(F)F` [Example 9], the concentration for half-maximal inhibition (IC50) worked out at 3.49 µM. In the case of `O=C(NCc1cocn1)c1oc2ccc3cn(C[C@H]4COCCO4)nc3c2c1C(F)(F)F` [Example 10], the IC50 amounted to 0.1 µM.

For `Cn1cnc(CNC(=O)c2oc3ccc4cn(C[C@H]5COCCO5)nc4c3c2C(F)(F)F)c1` [Example 11], the IC50 was 0.075 µM.

As to `O=C(NCc1nccs1)c1oc2ccc3cn(C[C@H]4COCCO4)nc3c2c1C(F)(F)F` [Example 12], the IC50 was 0.018 µM. With `O=C(NCc1cncs1)c1oc2ccc3cn(C[C@H]4COCCO4)nc3c2c1C(F)(F)F` [Example 13] the figure was 0.49 µM; with `O=C(NCc1ncccn1)c1oc2ccc3cn(C[C@H]4COCCO4)nc3c2c1C(F)(F)F` [Example 14], 0.048 µM.

Turning to `O=C(NCc1cnccn1)c1oc2ccc3cn(C[C@H]4COCCO4)nc3c2c1C(F)(F)F` [Example 15], the IC50 stood at 0.049 µM. The figure for `O=C(NCc1ccncn1)c1oc2ccc3cn(C[C@H]4COCCO4)nc3c2c1C(F)(F)F` [Example 16] is 0.12 µM; for `O=C(NCc1cccnn1)c1oc2ccc3cn(C[C@H]4COCCO4)nc3c2c1C(F)(F)F` [Example 17] it is 0.46 µM; for `Cc1ccc(CNC(=O)c2oc3ccc4cn(C[C@H]5COCCO5)nc4c3c2C(F)(F)F)nc1` [Example 18, 2-{[(2S)-1,4-dioxan-2-yl]methyl}-N-[(5-methylpyridin-2-yl)methyl]-8-(trifluoromethyl)-2H-furo[2,3-g]indazole-7-carboxamide] it is 0.007 µM.

`Cc1ccnc(CNC(=O)c2oc3ccc4cn(C[C@H]5COCCO5)nc4c3c2C(F)(F)F)c1` [Example 19, 2-{[(2S)-1,4-dioxan-2-yl]methyl}-N-[(4-methylpyridin-2-yl)methyl]-8-(trifluoromethyl)-2H-furo[2,3-g]indazole-7-carboxamide]: the IC50 is 0.053 µM. The figure for `Cc1cnc(CNC(=O)c2oc3ccc4cn(C[C@H]5COCCO5)nc4c3c2C(F)(F)F)cn1` [Example 20, 2-{[(2S)-1,4-dioxan-2-yl]methyl}-N-[(5-methylpyrazin-2-yl)methyl]-8-(trifluoromethyl)-2H-furo[2,3-g]indazole-7-carboxamide] is 0.018 µM.

As to `Cc1ccc(CNC(=O)c2oc3ccc4cn(C[C@H]5COCCO5)nc4c3c2C(F)(F)F)nn1` [Example 21], the IC50 turned out to be 0.35 µM. In the case of `N#Cc1ccc(CNC(=O)c2oc3ccc4cn(C[C@H]5COCCO5)nc4c3c2C(F)(F)F)nc1` [Example 22], the IC50 is 0.013 µM. The figure for `N#Cc1ccnc(CNC(=O)c2oc3ccc4cn(C[C@H]5COCCO5)nc4c3c2C(F)(F)F)c1` [Example 23] is 0.25 µM. With `COc1cccc(CNC(=O)c2oc3ccc4cn(C[C@H]5COCCO5)nc4c3c2C(F)(F)F)n1` [Example 24], the 50% inhibitory concentration (IC50) was determined as 0.4 µM. Regarding `O=C(NCCn1ccnc1)c1oc2ccc3cn(C[C@H]4COCCO4)nc3c2c1C(F)(F)F` [Example 25], the IC50 amounted to 13 µM. With `Cc1cn(CCNC(=O)c2oc3ccc4cn(C[C@H]5COCCO5)nc4c3c2C(F)(F)F)nn1` [Example 26] the figure was 14 µM; with `O=C(NCCc1ccccn1)c1oc2ccc3cn(C[C@H]4COCCO4)nc3c2c1C(F)(F)F` [Example 27, 2-{[(2S)-1,4-dioxan-2-yl]methyl}-N-[2-(pyridin-2-yl)ethyl]-8-(trifluoromethyl)-2H-furo[2,3-g]indazole-7-carboxamide], 0.63 µM. With `O=C(NCCc1cccnc1)c1oc2ccc3cn(C[C@H]4COCCO4)nc3c2c1C(F)(F)F` [Example 28, 2-{[(2S)-1,4-dioxan-2-yl]methyl}-N-[2-(pyridin-3-yl)ethyl]-8-(trifluoromethyl)-2H-furo[2,3-g]indazole-7-carboxamide] the figure was 3.58 µM; with `Cc1cc2oc(C(=O)NC[C@@H]3CCCO3)c(C(F)(F)F)c2c2nn(Cc3ccccn3)cc12` [Example 29], 0.016 µM; with `Cc1cc2oc(C(=O)NC[C@@H]3COCCO3)c(C(F)(F)F)c2c2nn(Cc3ccccn3)cc12` [Example 30], 0.026 µM. Turning to `Cc1cc2oc(C(=O)NC[C@@H]3CCCO3)c(C(F)(F)F)c2c2nn(Cc3ccncc3)cc12` [Example 31], the IC50 was 0.013 µM. With `Cc1cc2oc(C(=O)NCc3ncco3)c(C(F)(F)F)c2c2nn(Cc3ccccn3)cc12` [Example 33] the figure was 0.1 µM. The figure for `Cc1cc2oc(C(=O)NCc3ccn(C)n3)c(C(F)(F)F)c2c2nn(Cc3ccccn3)cc12` [Example 34] is 0.15 µM; for `Cc1ccc(Cn2cc3c(C)cc4oc(C(=O)NC[C@@H]5CCCO5)c(C(F)(F)F)c4c3n2)nc1` [Example 35] it is 0.004 µM; for `Cc1ccc(Cn2cc3c(C)cc4oc(C(=O)NC[C@@H]5COCCO5)c(C(F)(F)F)c4c3n2)nc1` [Example 36, N-{[(2R)-1,4-dioxan-2-yl]methyl}-4-methyl-2-[(5-methylpyridin-2-yl)methyl]-8-(trifluoromethyl)-2H-furo[2,3-g]indazole-7-carboxamide] it is 0.005 µM. Consider `Cc1ccc(Cn2cc3c(C)cc4oc(C(=O)NCc5ncco5)c(C(F)(F)F)c4c3n2)nc1` [Example 37, 4-methyl-2-[(5-methylpyridin-2-yl)methyl]-N-[(1,3-oxazol-2-yl)methyl]-8-(trifluoromethyl)-2H-furo[2,3-g]indazole-7-carboxamide], for which the IC50 stood at 0.018 µM. Turning to `Cc1cc2oc(C(=O)NC[C@@H]3CCCO3)c(C(F)(F)F)c2c2nn(C[C@H]3COCCO3)cc12` [Example 38], the 50% inhibitory concentration (IC50) was determined as 0.021 µM.
